Experimental data from US20240383923A1, “HETEROARYL DERIVATIVE AND USE THEREOF” (VORONOI INC., priority 2022, published 2024).

Legend:
N-87 cancer cells = assay: Inhibition of N-87 cell proliferation (CellTiter-Glo); type: cell-based; settings: N-87 cells, 72 hours
Description: N-87 cancer cells were cultured by using RPMI-1640 medium with 10% FBS. The N-87 cancer cells were seeded to a white clear bottom 96 well plate (Corning) at 5,000 cells per well 24 hours before the […] cancer cells were treated with Example Compounds. Example Compounds were diluted in dimethylsulfoxide (5-fold diluted, total 11 concentrations) and 0.5 μL each was injected so that the final concentration was […]. For the measurement of living cells, the cells were stored at room temperature for 10 minutes using the CellTiter-Glo cell viability reagent (Promega) after 72 hours after the treatment of Example Compounds, and then the luminescence intensity was measured using the reader (SynergyNeo, Biotek).
The result value was calculated as a cell growth rate (%) compared to a control group. Graphs were plotted and GI50 values were calculated using the GraphPad Prism version 8.0 program, and the results are shown in Table 18 below.

BT-474 cancer cells = assay: Inhibition of BT-474 cell proliferation (CellTiter-Glo); type: cell-based; settings: Homo sapiens, BT-474 cells, 120 hours
Outline: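 BT-474 cells in RPMI-1640 with 20% FBS, seeded 48 h before dosing with 11 three-fold dilutions (final 0.2 nM to 10 μM). Viability read by CellTiter-Glo luminescence 120 h after treatment, triplicate tests. GI50 derived from growth rate (%) versus control.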

HER2 enzyme = molecular target: T1, HER2 enzyme (Homo sapiens, UniProt P04626); assay: Biochemical kinase assay for HER2 (Reaction Biology Corp.); settings: ATP 10 μM, 3-fold dilution from 10 μM
T1 construct: purchased Reaction Biology Corp. (San Diego, USA); outsourced assay service
T1 sequence (P04626 23-1255): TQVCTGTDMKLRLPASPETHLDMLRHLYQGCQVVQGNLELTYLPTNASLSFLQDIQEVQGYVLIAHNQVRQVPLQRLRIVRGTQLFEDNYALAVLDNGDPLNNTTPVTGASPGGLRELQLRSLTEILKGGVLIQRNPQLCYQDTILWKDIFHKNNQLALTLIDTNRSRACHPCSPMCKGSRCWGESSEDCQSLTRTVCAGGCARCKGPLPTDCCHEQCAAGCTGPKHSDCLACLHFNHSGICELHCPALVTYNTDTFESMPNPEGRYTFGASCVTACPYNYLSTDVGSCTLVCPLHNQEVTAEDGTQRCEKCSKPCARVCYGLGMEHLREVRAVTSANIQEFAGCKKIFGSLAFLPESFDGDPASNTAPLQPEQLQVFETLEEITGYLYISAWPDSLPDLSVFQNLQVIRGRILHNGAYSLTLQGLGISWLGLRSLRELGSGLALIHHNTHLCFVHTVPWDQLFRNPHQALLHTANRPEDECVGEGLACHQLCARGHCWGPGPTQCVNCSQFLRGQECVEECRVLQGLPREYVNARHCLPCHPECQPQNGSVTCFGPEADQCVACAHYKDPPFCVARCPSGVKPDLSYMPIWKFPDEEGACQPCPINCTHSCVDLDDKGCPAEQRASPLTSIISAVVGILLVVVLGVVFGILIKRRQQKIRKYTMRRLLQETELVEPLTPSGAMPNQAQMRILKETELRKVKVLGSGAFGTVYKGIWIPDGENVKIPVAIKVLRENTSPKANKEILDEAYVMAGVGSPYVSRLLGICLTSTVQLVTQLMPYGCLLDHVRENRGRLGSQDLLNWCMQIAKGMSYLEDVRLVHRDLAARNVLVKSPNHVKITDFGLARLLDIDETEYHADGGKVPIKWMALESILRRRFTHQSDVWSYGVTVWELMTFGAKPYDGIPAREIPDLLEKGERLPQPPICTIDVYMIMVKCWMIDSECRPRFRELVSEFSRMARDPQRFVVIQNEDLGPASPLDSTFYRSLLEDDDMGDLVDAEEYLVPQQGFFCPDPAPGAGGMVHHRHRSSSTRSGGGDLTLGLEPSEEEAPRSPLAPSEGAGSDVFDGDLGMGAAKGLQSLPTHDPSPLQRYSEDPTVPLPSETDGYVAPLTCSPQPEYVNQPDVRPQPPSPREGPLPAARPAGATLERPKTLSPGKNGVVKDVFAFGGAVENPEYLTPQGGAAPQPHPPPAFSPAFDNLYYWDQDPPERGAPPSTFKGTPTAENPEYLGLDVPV
Description: A biochemical kinase assay for HER2 was conducted through Reaction Biology Corp. (San Diego, USA).

GI50 (N-87 cancer cells) [nM]	GI50 (BT-474 cancer cells) [nM]	IC50 (HER2 enzyme) [nM]	SMILES
≤ 50	≤ 50	≤ 50	C=CC(=O)N1CCC(Nc2cc3c(Nc4cc(Cl)c(Oc5cccc(F)c5)cc4OC)ncnc3cc2OC)CC1 [Example 2, 1-(4-((4-((5-chloro-4-(3-fluorophenoxy)-2-methoxyphenyl)amino)-7-methoxyquinazolin-6-yl)amino)piperidin-1-yl)prop-2-en-1-one]
≤ 50	≤ 50	≤ 50	C=CC(=O)N1CCC(Oc2cc3c(Nc4cc(Cl)c(Oc5cccc(F)c5)cc4OC)ncnc3cc2OC)CC1 [Example 8, 1-(4-((4-((5-chloro-4-(3-fluorophenoxy)-2-methoxyphenyl)amino)-7-methoxyquinazolin-6-yl)oxy)piperidin-1-yl)prop-2-en-1-one]
≤ 50	≤ 50	≤ 50	COc1cc2ncnc(Nc3cc(Cl)c(Oc4cccc(F)c4)cc3OC)c2cc1NC(=O)/C=C/CN(C)C [Example 25, (E)-N-(4-((5-chloro-4-(3-fluorophenoxy)-2-methoxyphenyl)amino)-7-methoxyquinazolin-6-yl)-4-(dimethylamino)but-2-enamide]
	≤ 50	≤ 50	COc1cc2ncnc(Nc3cc(C(F)(F)F)c(Oc4ccn5ncnc5c4)cc3OC)c2cc1NC(=O)/C(F)=C/[C@H]1CCCN1C [Example 54, (R,Z)—N-(4-((4-([1,2,4]triazolo[1,5-a]pyridin-7-yloxy)-2-methoxy-5-(trifluoromethyl)phenyl)amino)-7-methoxyquinazolin-6-yl)-2-fluoro-3-(1-methylpyrrolidin-2-yl)acrylamide]
	≤ 50	≤ 50	COc1cc(Oc2ccn3ncnc3c2)c(C)cc1Nc1ncnc2ccc(NC(=O)/C(F)=C/[C@H]3CCCN3C)cc12 [Example 92, (R,Z)—N-(4-((4-([1,2,4]triazolo[1,5-a]pyridin-7-yloxy)-2-methoxy-5-methylphenyl)amino)quinazolin-6-yl)-2-fluoro-3-(1-methylpyrrolidin-2-yl)acrylamide]
≤ 50	≤ 50		CCOc1cc2ncnc(Nc3cc(C)c(Oc4ccn5ncnc5c4)cc3OC)c2cc1NC(=O)/C(F)=C\[C@H]1CCCN1C [Example 93, (R,E)-N-(4-((4-([1,2,4]triazolo[1,5-a]pyridin-7-yloxy)-2-methoxy-5-methylphenyl)amino)-7-ethoxyquinazolin-6-yl)-2-fluoro-3-(1-methylpyrrolidin-2-yl)acrylamide]
≤ 50	≤ 50		COCCOc1cc2ncnc(Nc3cc(C)c(Oc4ccn5ncnc5c4)cc3OC)c2cc1NC(=O)/C(F)=C/[C@H]1CCCN1C [Example 95, (R,Z)—N-(4-((4-([1,2,4]triazolo[1,5-a]pyridin-7-yloxy)-2-methoxy-5-methylphenyl)amino)-7-(2-methoxyethoxy)quinazolin-6-yl)-2-fluoro-3-(1-methylpyrrolidin-2-yl)acrylamide]
≤ 50	≤ 50		CCOc1cc(Oc2ccn3ncnc3c2)c(C)cc1Nc1ncnc2cc(OC)c(NC(=O)/C(F)=C\[C@H]3CCCN3C)cc12 [Example 104, (R,E)-N-(4-((4-([1,2,4]triazolo[1,5-a]pyridin-7-yloxy)-2-ethoxy-5-methylphenyl)amino)-7-methoxyquinazolin-6-yl)-2-fluoro-3-(1-methylpyrrolidin-2-yl)acrylamide]
≤ 50	≤ 50		COc1cc2ncnc(Nc3cc(C)c(Oc4ccn5ncnc5c4)cc3OC)c2cc1NC(=O)/C(F)=C\[C@H]1CCCN1 [Example 134, (R,E)-N-(4-((4-([1,2,4]triazolo[1,5-a]pyridin-7-yloxy)-2-methoxy-5-methylphenyl)amino)-7-methoxyquinazolin-6-yl)-2-fluoro-3-(pyrrolidin-2-yl)acrylamide]
≤ 50	≤ 50		COc1cc2ncnc(Nc3cc(C)c(Oc4ccn5ncnc5c4)cc3OC)c2cc1NC(=O)/C(Cl)=C\[C@H]1CCCN1C [Example 136, (R,E)-N-(4-((4-([1,2,4]triazolo[1,5-a]pyridin-7-yloxy)-2-methoxy-5-methylphenyl)amino)-7-methoxyquinazolin-6-yl)-2-chloro-3-(1-methylpyrrolidin-2-yl)acrylamide]
